Assay results as given in patent US5359087A, “Bioactive quisqualic acid analogs” (Regents of the University of Minnesota, priority 1993, dated 1994).
Entries after “also recorded” stand apart in the source; their conditions may differ. Where two headings read alike, the source gives them in different places.

Key:
[1] = test system: CA1 neurons (rat hippocampal slices); assay: Inhibition of evoked synaptic field potential of CA1 neurons in hippocampal slices, before and after L-quisqualic acid exposure; type: cell-based, rat (male Sprague-Dawley); settings: for sensitization: fractional increase in potency after L-quisqualic acid (IC50 before vs after); for change in IC50 / sensitization after L-quisqualic acid: hippocampal slices after exposure to L-quisqualic acid; for stimulatory activity prior to treatment with L-quisqualic acid: prior to treatment of hippocampal slices with L-quisqualic acid; for decrease of IC50 values after exposure of the tissue to L-quisqualic acid: IC50 before vs after L-quisqualic acid
Procedure: The IC50 values for inhibition of the evoked synaptic field potential of CA1 neurons of analogs 2-5 were determined both before and after slices were exposed to L-quisqualic acid. Varying degrees of sensitization were observed as shown by the data on Table 2.
Potencies were determined before and after a 4minute exposure of slices t
16 μM Lquisqualic acid. Sensitization refers to the fractional increas
(§1) Transverse hippocampal slices were obtained from 30-100 day-old male Sprague-Dawley rats. Rats were anesthetized with urethane (1.5 g/kg ip) and then decapitated. The brain was removed and placed in ice-cold preparatory medium comprised of 124 mM NaCl, 3.3 mM KCl, 10 mM MgSO4, 0.5 mM CaCl2, 1.2 mM KH2 PO4, 10 mM glucose, and 26 mM NaHCO3 equilibrated with 95% O2 /5% CO2 (pH 7.4). The hippocampus was then isolated and sliced into 500-μm slices using a Campden Instruments VibroSlice microtome. Slices were submerged in preparatory medium at 28° C. which was aerated with 95% O2 /5% CO2 and incubated for 45 min. Slices were then transferred to recording medium comprised of 124 mM NaCl, 3.3 mM KCl, 2.4 mM MgSO4, 2.5 mM CaCl2, 1.2 mM KH2 PO4, 10 mM glucose, and 26 mM NaHCO3 aerated with 95% O2 /5% CO2 (pH 7.4) and incubated at 28° C. for at least 30 min. prior to use.
(§2) Slices were transferred to a small recording chamber containing the recording medium at 34° C. Initially, the upper surface of the slice was exposed to a humid atmosphere containing 95% O2 /5% CO2. Bipolar stimulation (0.1 ms, 10-40 V, 0.1 Hz) was delivered to the Schaffer collateral axons via a pair of Teflon-coated stainless steel wires (0.003 in.). […] The evoked extracellular synaptic field potentials were observed using a storage oscilloscope, and the peak amplitudes were sampled and recorded with a chart recorder. When a suitable field potential was obtained, the slice was submerged in oxygenated medium (34° C.) and the response allowed to stabilize. Test compounds were dissolved in oxygenated medium and were added and removed using a push/pull device allowing a complete change of medium within 30 sec.
Slices were exposed to L-AP4, L-quisqualic acid and the test compound in the following sequence, which is a modification of the previous method: (1) 200 μM L-AP4, (2) test compound, (3) 200 μM L-AP4, (4) 16 μM L-quisqualic acid, (5) 200 μM L-AP4, (6) test compound, (7) 200 μM L-AP4. Slices were washed between each addition of new drug until the peak amplitude of the field potential returned to its pretest level. Full concentration-response curves were determined for the test compound both before and after treatment of slices with L-quisqualic acid. In addition to determining the potency of compounds before and after addition of L-quisqualic acid, this protocol was designed to test for the ability of test compounds to induce the QUIS effect (and thus mimic the effects of L-quisqualic acid) and to test for the "preblocking" and "reversal" effects which have been previously observed only for L-homocysteine sulfinic acid, L-serine O-sulfate, and L-α-aminoadipic acid.
Concentration-response data were obtained by exposing the slice to a concentration of drug which was subthreshold for inhibition of the field potential. Drug concentration was doubled every 4 min until the response had either declined more than 70% or the bath concentration of the drug exceeded 10 mM. […] IC50 values were obtained. by plotting the fractional response remaining at the end of 4 min versus the log of the bath concentration of the drug. The concentration which produced a 50% inhibition of the peak amplitude (IC50) was interpolated from the graph. All reported IC50 values are the mean values for four or more experiments. The results are summarized on Table 2, above.

[2] = biological target: AMPA/Quisqualate Excitatory Amino Acid Receptor; assay: [3H]AMPA radioligand receptor binding assay; settings: for % Inhibition of [3H]AMPA binding: compound concentration of 10^-5 M; for activity at the AMPA/quisqualate receptor: [3H]AMPA binding
Text: The assay that was used was a radioligand receptor binding assay using [^3 H]α-amino-3-hydroxy-5-methylisoxazole-4-propionic acid ([^3 H]AMPA) as the radioligand [Murphy et al., Neurochemical Research, 12, 775 (1987)].
^a Percent inhibition of [^3 H]AMPA binding at a compound
concentration of 10^-5 M.

[3] = test system: CA1 neurons (rat hippocampal slices); settings: data from Ref. 14, cited from earlier work; for IC50: CA1 region; for sensitization: fractional increase in potency
[4] = test system: QUIS effect in hippocampal slices (CA1 region); assay: Capability to induce, preblock and reverse the QUIS effect in hippocampal slices; type: cell-based, rat (male Sprague-Dawley); settings: sensitization of slices to depolarization by AP4
Procedure: L-Quisqualic acid analogs 2-5 were tested for their capability to induce, preblock and reverse the QUIS effect by the procedures disclosed in the examples hereinbelow. […] Thus, L-quisqualic acid remains the only compound known to induce the QUIS effect. In addition, none of the analogs were capable of preblocking or reversing the sensitization induced by L-quisqualic acid. […] While the precise details are unknown, an induction mechanism shown in FIG. 2, involving multiple sites of interaction such as this, would explain the apparent strict structural requirements for induction, reversal and preblocking of the QUIS effect.
as §1, §2
Slices were exposed to L-AP4, L-quisqualic acid and the test compound in the following sequence, which is a modification of the previous method: (1) 200 μM L-AP4, (2) test compound, (3) 200 μM L-AP4, (4) 16 μM L-quisqualic acid, (5) 200 μM L-AP4, (6) test compound, (7) 200 μM L-AP4. […] Full concentration-response curves were determined for the test compound both before and after treatment of slices with L-quisqualic acid. […]

metabotropic receptor = settings: cited from earlier work
AMPA receptor = settings: cited from earlier work
[5] = test system: N-acetyl α-linked acidic dipeptidase; settings: hydrolyzes the brain dipeptide Ac-Asp-Glu-OH; cited from earlier work
kainate receptor = settings: cited from earlier work
[6] = test system: Ca^2+ /Cl^- -dependent glutamic acid uptake system; settings: brain synaptic plasma membrane preparations; cited from earlier work
[7] = test system: CA1 neurons in rat hippocampal slices; settings: cited from earlier work
[8] = test system: QUIS effect in CA1 neurons; settings: cited from earlier work; for reversal of the QUIS effect after it has been induced: CA1 neurons; for blocking (preblocking) of the QUIS effect: brief exposure of CA1 neurons, removed prior to L-quisqualic acid
[9] = Rattus norvegicus, Neuron, 4 min, CA1 region, after 4-minute exposure of slices to 16 μM L-quisqualic acid, read-out: IC50 Values ± SEM after quisqualic acid
[10] = Rattus norvegicus, Neuron, CA1 region of the hippocampus, before exposure to L-quisqualic acid, mean of four or more experiments, read-out: IC50 Values ± SEM before quisqualic acid
[11] = after 4-minute exposure to 16 μM L-quisqualic acid, read-out: IC50 Values after quisqualic acid
[12] = before L-quisqualic acid, read-out: IC50 Values before quisqualic acid

N[C@H](Cn1oc(=O)[nH]c1=O)C(=O)O [D-quisqualic acid, reference compound]
IC50 ([1]; Rattus norvegicus, Neuron, 4 min, read-out: IC50 Values ± SEM after quisqualic acid): 10 ± 1.7 µM
IC50 ([1]; Rattus norvegicus, Neuron, read-out: IC50 Values ± SEM before quisqualic acid): 78 ± 8.5 µM
sensitization [1]: 7.5
change in IC50 / sensitization after L-quisqualic acid [1]: slices become sensitized

N[C@@H](CC1=CC(=O)NC1=O)C(=O)O [Compound 2, (S)-2,5-Dihydro-2,5-dioxo-α-amino-1H-pyrrole-3-propanoic Acid]
IC50 [1, 9]: 9.5 ± 2.5 µM
IC50 [1, 10]: 21 ± 4.4 µM
sensitization [1]: 2.2
stimulatory activity prior to treatment with L-quisqualic acid [1]: high stimulatory activity
Ki ([2]; [3H]AMPA radioligand): 0.37 µM
% Inhibition of [3H]AMPA binding [2]: 93.5%

N[C@@H](CCP(=O)(O)O)C(=O)O [L-AP4, L-2-amino-4-phosphonobutanoic acid]
IC50 [3, 11]: 55 µM
IC50 [3, 12]: 1800 µM
sensitization [3]: 33

N[C@@H](CN1CC(=O)NC1=O)C(=O)O [Compound 6]
induction of the QUIS effect [4]: did not exhibit the QUIS effect
IC50 [1, 9]: 0.8 ± 0.26 µM
IC50 [1, 10]: 1.4 ± 0.6 µM
IC50 ([1]; Rattus norvegicus, Neuron, CA1 region of the rat hippocampus, read-out: IC50, stimulatory effect on CA1 region of the rat hippocampus): 1.4 ± 0.6 µM
sensitization [1]: 1.7
stimulatory activity prior to treatment with L-quisqualic acid [1]: high stimulatory activity

N[C@@H](Cn1oc(=O)[nH]c1=O)C(=O)O [L-quisqualic acid, L-Quisqualic acid]
induction of the QUIS effect [4]: only L-quisqualic acid sensitized slices to depolarization by AP4
affinity for the metabotropic receptor (metabotropic receptor): high affinity
affinity for the AMPA receptor (AMPA receptor): high affinity
inhibition of N-acetyl α-linked acidic dipeptidase [5]: inhibits
IC50 [3, 11]: 2.9 µM
IC50 [3, 12]: 3.9 µM
sensitization [3]: 1.3
affinity for the kainate receptor (kainate receptor): high affinity
inhibition of Ca2+/Cl- -dependent glutamic acid uptake system [6]: inhibits
sensitization of CA1 neurons to depolarization by D- or L-AP4 and related phosphonates [7]: 30-100 fold

CN1C(=O)C=C(C[C@H](N)C(=O)O)C1=O [Compound 3, (S)-2,5-Dihydro-2,5-dioxo-α-amino-1-methylpyrrole-3-propanoic Acid]
induction of the QUIS effect [4]: do not induce the QUIS effect
decrease of IC50 values after exposure of the tissue to L-quisqualic acid [1]: more than 7 fold
IC50 [1, 9]: 6.8 ± 2.3 µM
IC50 [1, 10]: 95 ± 19 µM
sensitization [1]: 14.0
change in IC50 / sensitization after L-quisqualic acid [1]: the slices are sensitized to depolarization by these compounds following exposure to L-quisqualic acid; also recorded: first non-phosphorus compounds to which hippocampal slices are known to become sensitized
% Inhibition of [3H]AMPA binding [2]: 1.1%

N[C@@H](CC1CC(=O)NC1=O)C(=O)O (mixture of isomers) [Compound 5B, 2,5-Dioxo-α(S)-amino-3(RS)-pyrrolidinepropanoic Acid]
IC50 ([1]; CA1 region of the hippocampus, before exposure to L-quisqualic acid, mean of four or more experiments, read-out: IC50 Values ± SEM before quisqualic acid): 9200 ± 1100 µM
IC50 ([1]; CA1 region, after 4-minute exposure of slices to 16 μM L-quisqualic acid, read-out: IC50 Values ± SEM after quisqualic acid): 6800 ± 930 µM
sensitization [1]: 1.3
change in IC50 / sensitization after L-quisqualic acid [1]: No significant change in IC50 values
activity at the AMPA/quisqualate receptor [2]: active at the AMPA/quisqualate receptor

N[C@@H](CC1=CC(=O)N(CC(=O)O)C1=O)C(=O)O [Compound 4, (S)-2,5-Dihydro-2,5-dioxo-α-amino-1-(carboxymethyl)pyrrole-3-propanoic Acid]
induction of the QUIS effect [4]: do not induce the QUIS effect
decrease of IC50 values after exposure of the tissue to L-quisqualic acid [1]: more than 7 fold
IC50 [1, 9]: 375 ± 75 µM
IC50 [1, 10]: 2900 ± 320 µM
sensitization [1]: 7.7
change in IC50 / sensitization after L-quisqualic acid [1]: the slices are sensitized to depolarization by these compounds following exposure to L-quisqualic acid; also recorded: first non-phosphorus compounds to which hippocampal slices are known to become sensitized

N[C@@H](CCCC(=O)O)C(=O)O [L-α-aminoadipic acid]
reversal of the QUIS effect after it has been induced [8]: capable of reversing the QUIS effect
blocking (preblocking) of the QUIS effect [8]: the QUIS effect can be blocked

N[C@@H](COS(=O)(=O)O)C(=O)O [L-serine O-sulfate]
reversal of the QUIS effect after it has been induced [8]: capable of reversing the QUIS effect
blocking (preblocking) of the QUIS effect [8]: the QUIS effect can be blocked

N[C@@H](CCS(=O)O)C(=O)O [L-homocysteinesulfinic acid]
reversal of the QUIS effect after it has been induced [8]: capable of reversing the QUIS effect
blocking (preblocking) of the QUIS effect [8]: the QUIS effect can be blocked

N[C@H](CCP(=O)(O)O)C(=O)O [D-AP4, D-2-amino-4-phosphonobutanoic acid]
IC50 [3, 11]: 152 µM
IC50 [3, 12]: 2600 µM
sensitization [3]: 17

N[C@@H](CC1CC(=O)NC1=O)C(=O)O (mixture of isomers) [Compound 5A, 2,5-Dioxo-α(S)-amino-3(RS)-pyrrolidinepropanoic Acid]
IC50 [1, 9]: > 10000 µM
IC50 [1, 10]: > 10000 µM
change in IC50 / sensitization after L-quisqualic acid [1]: No significant change in IC50 values
activity at the AMPA/quisqualate receptor [2]: active at the AMPA/quisqualate receptor
% Inhibition of [3H]AMPA binding [2]: 55.5%
